According to PMC11931445, “A Novel Compound QO‐83 Alleviates Acute and Chronic Epileptic Seizures in Rodents by Modulating KV7 Channel Activity” (CNS Neuroscience & Therapeutics, 2025):

Legend:
KV7.2 = target: T1, KV7.2 (Homo sapiens, UniProt O43526); assay: Manual patch clamp, KV7 currents; assay type: cell-based; conditions: KV7.2
T1 construct: expressed in transfected cells
Experimental: (§1) Pipettes (1–6 MΩ) were filled with a solution of KCl (145 mM), MgCl2 (1 mM), HEPES (10 mM), and EDTA (5 mM). The pH was adjusted to 7.2 with NaOH. Electrophysiological measurements were obtained using an AXON Multiclamp 700 B patch‐clamp amplifier. The bath solution contained NaCl (144 mM), KCl (5 mM), MgCl2 (1 mM), CaCl2 (2 mM), and D‐glucose (10 mM), with the pH adjusted to 7.4 using NaOH. The protocol involved an increase in voltage from −120 mV to 40 mV in increments of 10 mV to evoke a series of KV7 currents (1000 ms per pulse) in the bath solution. For details on cell culture, please see Appendix S1 2.2.1.
(§2) Statistical differences between multiple groups (mean ± SEM) were compared using one‐ or two‐way ANOVA. Electrophysiological data were analyzed using SPSS version 21 and OriginPro (version 9.1.0). P Peak inward currents obtained from activation protocols were calculated using the following equation: G = I/(Vm‐EK), where G is conductance, I is peak inward current, Vm is instantaneous membrane potential, and EK is equilibrium potential for the […] channel. Conductance data were normalized using maximum conductance and further fitted to the Boltzmann equation: G=Gmax+Gmin−Gmax/1+expVm−V1/2/k , where G is conductance, V1/2 is midpoint of activation, and k is slope factor. The “Spectrum” module of LabChart was used for data analysis of EEG signals, including the calculation of power density and averaging power spectral density (PSD).
(§3) Stable Chinese Hamster Ovary (CHO) cell lines expressing specific Kv7 channel subtypes, including KV7.2 and KV7.2/7.3, were cultured in Minimum Essential Medium (MEM) supplemented with 10% fetal calf serum, 1× nonessential amino acids, […], and […] hygromycin B. Concurrently, KV7.4 and KV7.5 channels were stably expressed in Human Embryonic Kidney 293A (HEK293A) cell lines and nurtured in Dulbecco's Modified Eagle Medium (DMEM) high glucose medium supplemented with 10% fetal bovine serum (FBS), […], and […] hygromycin B.

KV7.5 = target: T2, KV7.5 (Homo sapiens, UniProt Q9NR82); assay: Manual patch clamp, KV7 currents; assay type: cell-based
T2 construct: expressed in transfected cells
Experimental: as §1, §2, §3

KV7.2/7.3 = target: T3, KV7.2/7.3 (Homo sapiens, UniProt O43525+O43526); assay: Manual patch clamp, KV7 currents; assay type: cell-based
T3 construct: expressed in transfected cells
Experimental: as §1, §2, §3

KV7.4 = target: T4, KV7.4 (Homo sapiens, UniProt P56696); assay: Manual patch clamp, KV7 currents; assay type: cell-based
T4 construct: expressed in transfected cells
Experimental: as §1, §2, §3

[1] = Colour stability of drug solutions; assay type: physicochemical; conditions: 10 μM in saline, 37°C, 30 days
Experimental: Both drugs were dissolved in saline at a concentration of 10 μM and maintained at a constant temperature of 37°C for 30 days.

[2] = tested on: pilocarpine-induced seizures; assay: Pilocarpine-induced status epilepticus model with EEG; assay type: in vivo, Sprague–Dawley (SD) rats; conditions: for effect on EEG power spectral density: pilocarpine-treated rats
Text: For animal experiments, we used adult male Sprague–Dawley (SD) rats weighing between 240 and 260 g. Isoflurane anesthesia was used for all operations. Rats were secured in a stereotaxic frame, and the anterior fontanelle was marked 3 mm posteriorly. Additionally, marks were made approximately 3 mm lateral to the midline on both sides to indicate the insertion points for the positive and negative electrodes. A ground electrode was placed subcutaneously in the occipital lobe to eliminate recording noise. Postoperatively, each animal was housed separately in a single cage and provided food and water ad libitum. After a 3‐day adaptation period, electroencephalograms (EEG) were recorded.
The experimental procedure commenced with an intraperitoneal injection of lithium chloride (127 mg/kg). After 24 h, subcutaneous scopolamine methyl nitrate (1 mg/kg) was administered. […] Twenty minutes later, status epilepticus (SE) was induced by administering pilocarpine (100 mg/kg, i.p.). SE was terminated 2 h later by administering 10% chloral hydrate.
The Pilo group, 2 mg/kg XE991 group, and 2 mg/kg XE991 + 1 mg/kg QO‐83 group received an intraperitoneal injection of lithium chloride (127 mg/kg) 24 h prior to testing. Following this, scopolamine methyl nitrate (1 mg/kg) was administered […], and after 10 min, each group was treated with 25% beta‐cyclodextrin, 2 mg/kg XE991, or 2 mg/kg XE991, respectively. After 15 min, 25% beta‐cyclodextrin, 25% beta‐cyclodextrin, or 1 mg/kg QO‐83 was administered. Finally, 25 min later, pilocarpine (100 mg/kg, i.p.) was administered to induce seizures.
Seizure severity was assessed using a standardized scale ranging from 1 to 5, adapted from previous research criteria. Stage 1 encompasses mouth and facial movements, including wet dog shakes. Stage 2 involves head nodding. Stage 3 is characterized by unilateral forelimb clonus. […] Finally, stage 5 manifests as clonus of all limbs accompanied by falling.

PTZ-induced seizures = assay: Metrazol maximal seizure (MMS) model; assay type: in vivo, C57BL/6J mice; conditions: 15 mg/kg
Experimental: For this experimental phase, male C57BL/6J mice weighing between 18 g and 25 g were randomly assigned to four groups based on their body weight. The QO‐83 group was divided into two subgroups, one receiving a dosage of 1 mg/kg (i.p.) and the other receiving a dosage of 3 mg/kg (i.p.).
PTZ (85 mg/kg, 0.1 mL per 10 g) was administered subcutaneously at the nape of the neck. Subsequently, mice were promptly placed in individual transparent observation chambers under quiet conditions. A stopwatch was utilized to measure seizure latency, defined as the time from PTZ injection to the onset of a generalized systemic clonic seizure and loss of the […]. The number of animals experiencing seizures was manually recorded.

electroshock seizures = assay: Maximal electroshock seizure (MES) model; assay type: in vivo, Kunming mice; conditions: 15 mg/kg i.p.

CCOC(=O)Nc1ccc(NCc2ccc(F)cc2)cc1N [RTG, retigabine]
activation curve V1/2 (KV7.2; 10.00 μM): -32.23 ± 1.89 mV | Activation τ (10 mV) (KV7.2; 10 μM, Mean ± SE): 259.60 ± 69.06 ms | Deactivation τ (-120 mV) (KV7.2; 10 μM, Mean ± SE): 102.04 ± 18.32 ms | activation curve V1/2 (KV7.5; 10.00 μM): -56.77 ± 1.07 mV | Activation τ (10 mV) (KV7.5; 10 μM, Mean ± SE): 170.33 ± 16.42 ms | Deactivation τ (-120 mV) (KV7.5; 10 μM, Mean ± SE): 96.4 ± 14.98 ms | activation curve V1/2 (KV7.2/7.3; 10.00 μM): -37.76 ± 2.34 mV | Activation τ (10 mV) (KV7.2/7.3; 10 μM, Mean ± SE): 205.66 ± 37.03 ms | Deactivation τ (-120 mV) (KV7.2/7.3; 10 μM, Mean ± SE): 154.46 ± 45.81 ms | activation curve V1/2 (KV7.4; 10.00 μM): -40.62 ± 2.00 mV | Activation τ (10 mV) (KV7.4; 10 μM, Mean ± SE): 242.74 ± 34.66 ms | Deactivation τ (-120 mV) (KV7.4; 10 μM, Mean ± SE): 99.62 ± 18.87 ms | color change of drug solution [1]: developed a distinct purple coloration | effect on epileptic behavior ([2]; 1 mg/kg i.p.): could not rescue the epileptic behavior | effect on EEG power spectral density ([2]; 1 mg/kg i.p.): did not exhibit effects equivalent | effect on latency of seizures ([2]; 10 mg/kg i.p.): significantly prolonged the latency of seizures | effect on seizure grade ([2]; 10 mg/kg i.p.): reduced the seizure grade | effect on EEG power spectral density ([2]; 10 mg/kg i.p.): significantly inhibited the increase in EEG power spectral density | seizure protection rate (PTZ-induced seizures): 40% | electroshock protection rate (electroshock seizures): 90%
